Data: patent US20220226341A1, “Pharmaceutical Composition for Alzheimer's Disease” (Kyoto University, priority 2019, published 2022)

target: CDK9/CycT1 (Homo sapiens, UniProt P50750); assay: CDK9 inhibitory activity, Off-chip Mobility Shift Assay (MSA); type: biochemical; conditions: room temperature, one hour, read-out: IC50 value with respect to CDK9/CycT1
Experimental: [Assay of CDK9 Inhibitory Activity]
The tests for confirming CDK9 inhibitory activity were carried out by the following procedure according to Off-chip Mobility Shift Assay (MSA).
A substrate/ATP/metal solution (4×) was prepared with use of a kit buffer (20 mM HEPES, 0.01% Triton X-100, 5 mM DTT, pH7.5). A kinase solution (2×) was prepared with use of an assay buffer.
2) The test substance solutions, the substrate/ATP/metal solution, and the kinase solution were mixed in wells of a polypropylene plate, and were caused to react at room temperature for one hour.
3) A termination buffer (QuickScout Screening Assist MSA; Cama Biosciences Inc.)
was added thereto to stop the reaction.
4) Substrate peptides and phosphorylated peptides in the reaction solutions were separated and quantified in LabChip™ System (PerkinElmer Co., Ltd.).
5) Kinase reaction activities were evaluated based on a product ratio (P/(P+S)) calculated from a peak height of the substrate peptide (S) and a peak height of the phosphorylated peptide (P).

Chain of CDK9/CycT1 (P50750 whole entry): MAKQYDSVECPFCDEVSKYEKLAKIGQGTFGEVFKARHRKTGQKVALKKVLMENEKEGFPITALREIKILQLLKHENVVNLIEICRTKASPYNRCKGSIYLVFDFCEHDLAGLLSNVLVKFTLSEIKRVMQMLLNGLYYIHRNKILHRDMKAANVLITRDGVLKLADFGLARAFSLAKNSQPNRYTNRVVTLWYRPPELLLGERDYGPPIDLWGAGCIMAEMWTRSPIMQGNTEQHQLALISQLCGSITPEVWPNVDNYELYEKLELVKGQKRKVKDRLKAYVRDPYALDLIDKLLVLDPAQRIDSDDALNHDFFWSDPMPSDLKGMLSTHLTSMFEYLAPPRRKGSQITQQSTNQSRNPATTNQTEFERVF
Chain of CDK9/CycT1 (O60563 whole entry partner): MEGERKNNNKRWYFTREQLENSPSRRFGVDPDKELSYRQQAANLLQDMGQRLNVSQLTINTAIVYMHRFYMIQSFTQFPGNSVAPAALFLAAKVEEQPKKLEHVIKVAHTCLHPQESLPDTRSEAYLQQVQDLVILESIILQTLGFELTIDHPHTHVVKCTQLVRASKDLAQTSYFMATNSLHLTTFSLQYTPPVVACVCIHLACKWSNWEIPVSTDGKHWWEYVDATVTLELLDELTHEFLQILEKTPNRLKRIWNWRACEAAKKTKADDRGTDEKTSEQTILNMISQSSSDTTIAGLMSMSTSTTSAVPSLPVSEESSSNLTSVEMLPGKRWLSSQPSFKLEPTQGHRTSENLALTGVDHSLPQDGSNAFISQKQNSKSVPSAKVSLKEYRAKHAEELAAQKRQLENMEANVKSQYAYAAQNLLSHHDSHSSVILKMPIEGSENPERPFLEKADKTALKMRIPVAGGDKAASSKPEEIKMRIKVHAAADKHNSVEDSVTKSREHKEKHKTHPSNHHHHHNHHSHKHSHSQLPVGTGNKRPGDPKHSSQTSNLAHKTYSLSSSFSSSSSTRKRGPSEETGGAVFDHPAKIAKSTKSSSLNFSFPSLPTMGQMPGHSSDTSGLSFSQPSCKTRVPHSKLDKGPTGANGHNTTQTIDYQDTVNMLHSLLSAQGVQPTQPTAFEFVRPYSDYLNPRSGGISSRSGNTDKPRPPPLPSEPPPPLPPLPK

Row | IC50 [µM] | Compound
1 | 13.1 | O=C(Nc1cc(F)ccc1N1CCCCC1)c1ccncc1 [Compound 2]
2 | 13.3 | Fc1ccc(N2CCCCCC2)c(NC(=S)c2ccncc2)c1 [Compound 3]
3 | 13.7 | O=C(Nc1cc(F)ccc1N1CCCCCC1)c1ccncc1 [Compound 4]
